# Experimental data from US10294221B2, “1, 3, 4-thiadiazole compounds and their use in treating cancer” (AstraZeneca AB, priority 2014, dated 2019).
# Tests used:
# [1] = tested on: human NSCLC NCI-H3122 cells xenograft; experiment: Mouse Xenograft Model, monotherapy (NCI-H3122); format: in vivo; conditions: Female Harlan Nude mice, 50 mg/kg once daily peroral for 17 days, monotherapy (FIG. 2)
# Description: Female Harlan Nude mice were transplanted s.c. with human NSCLC NCI-H3122 cells to determine the in-vivo anti-tumour activity of GLS inhibitors. 5×10^6 cells in 50% matrigel (BD Bioscience) were injected s.c. on the left flank of the animals. Animals were randomised into groups of 10-15 when tumours reached a volume of ˜200-300 mm^3 and treatment commenced. […] Tumours were measured twice weekly by calliper and volume of tumours calculated using elliptical formula (π/6×width×width×length). Statistical significance was evaluated using a one tailed, t-test. Example 2 was formulated in a 1% Polysorbate 80 and pH adjusted with 1M HCL to a final pH concentration of pH3.5. Data is presented as mean tumour volume with calculated mean standard error bars.
# [2] = tested on: human NSCLC NCI-H1703 cells xenograft; experiment: Mouse Xenograft Model, combination therapy study (NCI-H1703); format: in vivo; conditions: Male Scid mice
# Description: Male Scid mice were transplanted s.c. with human NSCLC NCI-H1703 cells (ATCC-CRL-5889) to determine the in-vivo anti-tumour activity of GLS inhibitors. 1×10^7 cells in 50% matrigel (BD Bioscience) were injected s.c. on the left flank of the animals.
# Animals were randomised into groups of 10-12 when tumours reached a volume of ˜200-300 mm^3 and treatment commenced. […] Tumours were measured twice weekly by calliper and volume of tumours calculated using elliptical formula (π/6×width×width×length). Statistical significance was evaluated using a one tailed, t-test. Taxotere® (Sanofi) was formulated in a physiological saline. Example 2 was formulated in a 1% Polysorbate 80 and pH adjusted with 1M HCL to a final pH concentration of pH3.5. Data is presented as mean tumour volume with calculated mean standard error bars.
smiles,measurement,setting,value
"CO[C@H](C(=O)Nc1nnc(N[C@@H]2CCN(c3cccnn3)C2)s1)c1ccccc1 [Example 2(a), (2S)-2-Methoxy-2-phenyl-N-[5-[[(3R)-1-pyridazin-3-ylpyrrolidin-3-yl]amino]-1,3,4-thiadiazol-2-yl]acetamide]","Tumour growth (mean tumour volume), NCI-H3122 xenograft",[1],inhibition of growth in-vivo
same,"Tumour growth (mean tumour volume), NCI-H1703 xenograft, combination with Taxotere",[2]; 100 mg/kg once daily peroral for 16 days in combination with once weekly intra-venous Taxotere (FIG. 3),slight regression compared to Taxotere® monotherapy treatment
same,"Tumour growth (mean tumour volume), NCI-H1703 xenograft, monotherapy","[2]; 100 mg/kg once daily peroral for 16 days, monotherapy (FIG. 3)",inhibition of growth in-vivo
